Laboratory results from patent US11707448B2, “Combination therapies for the treatment of cancer” (Eisai R&D Management Co., Ltd., priority 2014, dated 2023).

Experiments:
Type in all cases: in vivo, mice
CT26 tumors [1] = experiment: CT26 tumor model, ER-886046 with anti-PDL1 or anti-PD1
Experimental: FIG. 9A to FIG. 9B. […] Anti-PDL1 dosing: 200 μg per iv injection on days 9, 12, 15 and 18 post cell implantation as indicated by the arrows; […] Anti-PD1 dosing: 200 μg per iv injection on days 9, 12, 15, 18 and 21 post cell implantation as indicated by the arrows; […] Animal studies; In vitro cultured cancer cells were harvested and suspended in 100 μl of phosphate buffered saline at a cell concentration of 1.0×10^5 cells/ml and subcutaneously (sc) injected into the mice using a 26 g syringe on day 0. […] The animals that were assigned to the treatment groups in individual study had close mean tumor weights in all groups. […] Graphs of group tumor sizes (mean±SEM) and body weights (mean±SEM) versus time were plotted using software GraphPad Prism 6 (Lake Forest, Calif.). Student t-test and Gehan-Breslow-Wilcoxon test were used for statistical analysis.

CT26 tumors [2] = experiment: CT26 subcutaneous tumor model, ER-886046 with radiation
Experimental: FIG. 1A to FIG. 1B. […] Panel shown in FIG. 1A) Average tumor sizes of the CT26 tumor-bearing mice that received 9 Gy radiation+ER-886046, 9 Gy radiation alone, or vehicle alone. Panel shown in FIG. 1B) Average animal body weight of the CT-26 tumor-bearing mice. Radiation treatment: 9 Gy single dose on day 9; ER-886046 dosing: 150 mg/kg, oral (po) administration daily from day 9 to day 32. Administration of radiation and ER-886046 to the tumor-bearing mice is indicated by the arrows and bars, respectively. N=10-12 per group. *, p<0.05, student t-test.
FIG. 2A to FIG. 2C. Tumor growth plots of the individual CT-26 tumors treated with radiation/ER-886046 or radiation alone. The animals are of the experiment described in FIG. 1A and FIG. 1B. Panel shown in FIG. 2A) Vehicle treatment group. Panel shown in FIG. 2C) Radiation plus ER-886046. N=10-12 per group. […] Radiation treatment: 9 Gy single dose on day 9; ER-886046 dosing: 150 mg/kg, oral (po) administration daily from day 9 to day 32. Each line represents an individual animal.
FIG. 3. Improved tumor growth suppression and animal survival by low dose radiation/ER-886046 compared with low dose radiation alone. Plots of animal survival status among indicated treatment groups. Radiation treatment: 3 Gy single dose on day 17; ER-886046 dosing: 150 mg/kg, po administration daily from days 17 to 45. […] N=10 per group. *, p<0.05; ***, p<0.001; Gehan-Breslow-Wilcoxon test.
Animal studies; In vitro cultured cancer cells were harvested and suspended in 100 μl of phosphate buffered saline at a cell concentration of 1.0×10^5 cells/ml and subcutaneously (sc) injected into the mice using a 26 g syringe on day 0. At the days post cell implantation as indicated in the figures, the mice were randomized based on the tumor size followed by treatments with radiation at 3 or 9 Gy dose per treatment, anti-PDL1 at 200 μg/mouse per intraperitoneal injection (ip), or anti-CTLA4 at 200 or 100 μg/mouse per ip injection with or without orally administration of ER-886046 at a dose of 150 mg/kg. The animals that were assigned to the treatment groups in individual study had close mean tumor weights in all groups. The tumor sizes were measured twice a week by a digital caliper (Mitutoyo Corp), and the volume was calculated using the formula (1×w^2)/2=mm^3, where 1 and w refer to the larger and smaller perpendicular dimensions collected at each measurement. Graphs of group tumor sizes (mean±SEM) and body weights (mean±SEM) versus time were plotted using software GraphPad Prism 6 (Lake Forest, Calif.). Student t-test and Gehan-Breslow-Wilcoxon test were used for statistical analysis.

PAN02 pancreatic tumors = experiment: PAN02 pancreatic tumor model, ER-886046 with gemcitabine and radiation
Experimental: FIG. 10. […] Antitumor activity of gemcitabine plus local radiation (RT) administered to PAN02 pancreatic tumors in C57BL/6 mice with or without ER-886046. Gemcitabine and RT dosing: a single 40 mg/kg dose of gemcitabine and a single 6 Gy dose of RT, was administered on day 27 post tumor cell injection. ER-8806046 was administered daily in an amount of 150 mg/kg from day 27 post tumor cell injection until the end of the study.
FIG. 11A to FIG. 11B. Additional experiments with combination therapy of ER-886046 and anti-metabolite chemotherapy with radiation compared to anti-metabolite chemotherapy with radiation alone. Panel shown in FIG. 11A) Gemcitabine and RT dosing: a single 40 mg/kg dose of gemcitabine and a single 6 Gy dose of RT, was administered on day 19 post tumor cell injection. ER-8806046 was administered daily in an amount of 150 mg/kg from day 19 post tumor cell injection until the end of the study. Panel shown in FIG. 11B) Gemcitabine and RT dosing: a single 40 mg/kg dose of gemcitabine and a single 6 Gy dose of RT, was administered on day 12 post tumor cell injection. ER-8806046 was administered daily in an amount of 150 mg/kg from day 12 post tumor cell injection until the end of the study. Average tumor sizes of mouse pancreatic PAN02 tumor-bearing mice that received vehicles, ER-886046, gemcitabine (gem) plus radiation (RT), ER-886046 plus RT, or ER-886046 plus gemcitabine and RT at indicated dosages and schedules. A and B represent each independent study. N=8-10 per group. NS, not significant; *, p<0.05; **, p<0.01; ***, p<0.001; and ****, p<0.0001, two-way ANOVA test.
Animal studies; In vitro cultured cancer cells were harvested and suspended in 100 μl of cold HBSS buffer at cell concentrations of 1.0×10^6 cells/ml (CT-26 cells) or of 1.0×10^7 cells/ml (PAN02 cells) and subcutaneously (sc) injected into the mice using a 26 g syringe on day 0. At the dates as indicated in the figures, the mice were randomized based on the tumor size followed by treatments with local radiation alone, gemcitabine alone (intravenous administration), ER-886046 alone (oral administration), or combinations of these treatments. […] The tumor sizes were measured twice a week by a digital caliber (Mitutoyo Corp), and the volume was calculated using the formula (1×w^2)/2=mm^3, where 1 and w refer to the larger and smaller perpendicular dimensions collected at each measurement. Graphs of group tumor sizes (mean±SEM) versus time were plotted using software GraphPad Prism 6 (Lake Forest, Calif.). Two way ANOVA was used for statistical calculation among the groups. N=8-10 in each treatment group.

[3] = ER-886046 150 mg/kg po daily day 9-32 + radiation 9 Gy single dose day 9

## C[C@H](NC(=O)c1c(C(F)F)nn(C)c1Oc1cccc(C(F)(F)F)c1)c1ccc(C(=O)O)cc1 [ER-886046]
CT26 tumors [1]; ER-886046 150 mg/kg po daily day 9-19 + anti-PDL1 200 μg
  anti-tumor activity compared to anti-PDL1 alone: better anti-tumor activity
CT26 tumors [1]; ER-886046 150 mg/kg po daily day 9-23 + anti-PD1 200 μg
  anti-tumor activity compared to anti-PD1 alone: better anti-tumor activity
CT26 tumors [2]; ER-886046 150 mg/kg po daily added to 9 Gy radiation
  gross health and animal body weight compared to radiation alone: did not impact the gross health and animal body weight
CT26 tumors [2]; ER-886046 150 mg/kg po daily day 9-32 + radiation 9 Gy
  tumors with fast progression: 1 out of 12
CT26 tumors [2]; [3]
  anti-tumor activity compared to radiation alone: statistically significantly improved
  tumor growth (average tumor size): sustained tumor growth inhibition until the end of the study on day 49
CT26 tumors [2]; ER-886046 150 mg/kg po daily day 9-32 + radiation 9 Gy, end of study
  cure (complete tumor regression): 9 out of 12
CT26 tumors [2]; ER-886046 150 mg/kg po daily days 17-45 + low dose radiation 3 Gy single dose day 17, vs vehicle or radiation alone
  animal survival: significantly increased the animal survival
CT26 tumors [2]; cured by ER-886046 + radiation, followed for an additional 2 months
  tumor recurrence in the 9 tumor-free mice: no tumor recurrence
PAN02 pancreatic tumors; ER-886046 150 mg/kg daily + RT 6 Gy, first study (FIG. 10)
  anti-tumor activity, ER-886046 plus RT vs triple combination: no significant difference in the anti-tumor activity
PAN02 pancreatic tumors; ER-886046 150 mg/kg daily from day 27 + gemcitabine 40 mg/kg + RT 6 Gy day 27, first study (FIG. 10)
  anti-tumor activity, triple combination: best anti-tumor activity among the treatment groups
PAN02 pancreatic tumors; ER-886046 150 mg/kg daily from day 27, first study (FIG. 10)
  anti-tumor activity, ER-886046 alone: more efficacious than RT plus gemcitabine
PAN02 pancreatic tumors; triple combination ER-886046 + gemcitabine + RT, day 36 after tumor cell inoculation (FIG. 11B)
  tumor-bearing animals cured: five of eight
